The nature of series [1]: Antibacterial activity against Enterobacter cloacae 1321E. The series is classed as functional.
In series [2] the test system is Pseudomonas aeruginosa. Put plainly: microbe, parasite or virus in culture. It counts as functional.
Description: Antibacterial activity against Pseudomonas aeruginosa 1771M
Series [3] deals with Staphylococcus aureus. Put plainly: Antibacterial activity against Staphylococcus aureus SG 511. The series is classed as functional.
The subject of series [4] is Streptococcus pyogenes. Put plainly: Antibacterial activity against Streptococcus pyogenes 77A. It counts as functional.
Series [5] concerns Klebsiella aerogenes. Put plainly: Antibacterial activity against Klebsiella aerogenes 1522E. It counts as functional.
Series [6] deals with Enterococcus faecium. Put plainly: Antibacterial activity against Streptococcus faecium MD 8b. It counts as functional.
Series [7] concerns Salmonella typhimurium. Put plainly: Antibacterial activity against Salmonella Typhimurium. The series is classed as functional, Salmonella enterica subsp. enterica serovar Typhimurium. The following applies: Salmonella enterica.
The subject of series [8] is Pseudomonas aeruginosa. Put plainly: microbe, parasite or virus in culture. It counts as functional. The source holds these as a separate data set.
Description: Compound was evaluated for antibacterial activity against Pseudomonas aeruginosa 1592E
In series [9] the test system is Escherichia coli. Put plainly: microbe, parasite or virus in culture. The series is classed as functional.
Description: Antibacterial activity against Escherichia coli 1507E
In series [10] the target is T1, Dipeptidase 1 (Sus scrofa) (UniProt P22412).
T1 sequence (whole entry): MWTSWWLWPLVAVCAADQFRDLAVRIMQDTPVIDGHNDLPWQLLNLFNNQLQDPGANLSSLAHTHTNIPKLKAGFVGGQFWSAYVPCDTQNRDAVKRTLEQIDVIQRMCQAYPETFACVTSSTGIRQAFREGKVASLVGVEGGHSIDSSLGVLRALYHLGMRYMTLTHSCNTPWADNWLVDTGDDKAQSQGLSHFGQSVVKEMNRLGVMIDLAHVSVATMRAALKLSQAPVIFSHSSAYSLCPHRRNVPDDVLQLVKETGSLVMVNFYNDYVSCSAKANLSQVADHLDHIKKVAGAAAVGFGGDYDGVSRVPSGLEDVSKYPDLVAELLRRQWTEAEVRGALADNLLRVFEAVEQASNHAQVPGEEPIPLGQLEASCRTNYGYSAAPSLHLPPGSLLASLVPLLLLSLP
Put plainly: Compound was evaluated for relative rate of hydrolysis to imipenem by partially purified porcine renal Dehydropeptidase-1. Details: scale not given: the % may be the effect or the level left.

For series [11], the system named is Streptococcus pyogenes. Put plainly: Compound was tested for in vivo protective activity against Streptococcus pyogenes 77A at a single subcutaneous administration in mice. The series is classed as functional. The following applies: sc, read-out: PD50.
Series [12] is described as follows: Time taken by the compound to reach maximum concentration. It counts as ADME.
For series [13], the system named is Escherichia coli. Put plainly: Compound was tested for in vivo protective activity against Escherichia coli 078 at a single subcutaneous administration in mice. It counts as functional. The following applies: sc, read-out: PD50.
The subject of series [14] is Pseudomonas aeruginosa. Put plainly: Compound was tested for in vivo protective activity against Pseudomonas aeruginosa 1771M at a single subcutaneous administration in mice. The series is classed as functional. Conditions: sc, read-out: PD50.

≈ marks a conversion by molar mass, not a printed value.

The results in this text go back to ChEMBL document CHEMBL1130853, “Synthesis and biological properties of new 1 beta-methylcarbapenems” (Bioorg Med Chem Lett, 1998).

With `CNC(=O)CCNC(=O)[C@@H]1C[C@H](SC2=C(C(=O)O)N3C(=O)[C@H]([C@@H](C)O)[C@H]3[C@H]2C)CN1`, the MIC worked out at 0.025 µg/mL (≈ 0.0568 µM) in series [1]; 0.391 µg/mL (≈ 0.888 µM) in series [2]; 0.391 µg/mL (≈ 0.888 µM) in [3]; 0.013 µg/mL (≈ 0.0295 µM) in [4]; 0.049 µg/mL (≈ 0.111 µM) in series [5]; 12.5 µg/mL (≈ 28.4 µM) in series [6]. In addition, the MIC in series [7] is 0.049 µg/mL (≈ 0.111 µM); in series [8] it was 0.781 µg/mL (≈ 1.77 µM); in series [9], 0.025 µg/mL (≈ 0.0568 µM).
Turning to `C=CCNS(=O)(=O)CCNC(=O)[C@@H]1C[C@H](SC2=C(C(=O)O)N3C(=O)[C@H]([C@@H](C)O)[C@H]3[C@H]2C)CN1`, the MIC amounted to 0.025 µg/mL (≈ 0.0497 µM) in series [1]; 0.781 µg/mL (≈ 1.55 µM) in [2]; 0.195 µg/mL (≈ 0.388 µM) in series [3]; 0.007 µg/mL (≈ 0.0139 µM) in series [4]; 0.049 µg/mL (≈ 0.0975 µM) in series [5]; 6.25 µg/mL (≈ 12.4 µM) in series [6]. The MIC amounted to 0.049 µg/mL (≈ 0.0975 µM) in series [7], 1.56 µg/mL (≈ 3.11 µM) in [8] and 0.025 µg/mL (≈ 0.0497 µM) in series [9].
As to `C[C@@H](O)[C@H]1C(=O)N2C(C(=O)O)=C(S[C@@H]3CN[C@H](C(=O)NCCS(=O)(=O)N(C)CCO)C3)[C@H](C)[C@H]12`, the MIC in [1] amounted to 0.025 µg/mL (≈ 0.048 µM); in [2], 0.781 µg/mL (≈ 1.5 µM); in series [3] it was 0.391 µg/mL (≈ 0.751 µM); in [4], 0.013 µg/mL (≈ 0.025 µM); in series [5] it was 0.049 µg/mL (≈ 0.0941 µM); in series [6] it was 12.5 µg/mL (≈ 24 µM). Moreover, the MIC in [7] came to 0.049 µg/mL (≈ 0.0941 µM); in series [8] it was 1.56 µg/mL (≈ 3 µM); in series [9], 0.025 µg/mL (≈ 0.048 µM).
In the case of `COC(=O)CCNC(=O)[C@@H]1C[C@H](SC2=C(C(=O)O)N3C(=O)[C@H]([C@@H](C)O)[C@H]3[C@H]2C)CN1`, the MIC in series [1] turned out to be 0.025 µg/mL (≈ 0.0566 µM); in series [2] it was 0.195 µg/mL (≈ 0.442 µM); in series [3], 0.195 µg/mL (≈ 0.442 µM); in series [4], 0.007 µg/mL (≈ 0.0159 µM); in series [5], 0.049 µg/mL (≈ 0.111 µM); in [6], 12.5 µg/mL (≈ 28.3 µM). Moreover, the values for the MIC in series [7], in [8] and in series [9] were 0.049 µg/mL (≈ 0.111 µM), 1.56 µg/mL (≈ 3.54 µM) and 0.025 µg/mL (≈ 0.0566 µM), respectively.
On to `C[C@@H](O)[C@H]1C(=O)N2C(C(=O)O)=C(S[C@@H]3CN[C@H](C(=O)NCCS(=O)(=O)NCCO)C3)[C@H](C)[C@H]12`, for which the MIC in [1] turned out to be 0.025 µg/mL (≈ 0.0493 µM); in series [2], 0.391 µg/mL (≈ 0.772 µM); in series [3], 0.195 µg/mL (≈ 0.385 µM); in series [4], 0.007 µg/mL (≈ 0.0138 µM); in [5], 0.049 µg/mL (≈ 0.0967 µM); in series [6] it was 12.5 µg/mL (≈ 24.7 µM). The MIC worked out at 0.049 µg/mL (≈ 0.0967 µM) in [7], 0.391 µg/mL (≈ 0.772 µM) in series [8] and 0.025 µg/mL (≈ 0.0493 µM) in [9].
As to `C[C@@H](O)[C@H]1C(=O)N2C(C(=O)O)=C(S[C@@H]3CN[C@H](C(=O)NCCC(=O)N(C)C)C3)[C@H](C)[C@H]12`, the MIC in [1] amounted to 0.025 µg/mL (≈ 0.055 µM); in series [2] it was 0.391 µg/mL (≈ 0.86 µM); in series [3] it was 0.195 µg/mL (≈ 0.429 µM); in series [4], 0.007 µg/mL (≈ 0.0154 µM); in series [5] it was 0.049 µg/mL (≈ 0.108 µM); in series [6], 12.5 µg/mL (≈ 27.5 µM). Further, the MIC in [7] stood at 0.049 µg/mL (≈ 0.108 µM); in series [8], 1.56 µg/mL (≈ 3.44 µM); in series [9], 0.025 µg/mL (≈ 0.055 µM).
As to `CNS(=O)(=O)CCNC(=O)[C@@H]1C[C@H](SC2=C(C(=O)O)N3C(=O)[C@H]([C@@H](C)O)[C@H]3[C@H]2C)CN1`, the MIC in series [1] came to 0.025 µg/mL (≈ 0.0525 µM); in series [2], 0.369 µg/mL (≈ 0.774 µM); in [3], 0.195 µg/mL (≈ 0.409 µM); in [4], 0.013 µg/mL (≈ 0.0273 µM); in series [5] it was 0.049 µg/mL (≈ 0.103 µM); in series [6] it was 12.5 µg/mL (≈ 26.2 µM). Also, the MIC amounted to 0.025 µg/mL (≈ 0.0525 µM) in [7], 0.391 µg/mL (≈ 0.82 µM) in [8] and 0.025 µg/mL (≈ 0.0525 µM) in series [9].
As to `C[C@@H](O)[C@H]1C(=O)N2C(C(=O)O)=C(S[C@@H]3CN[C@H](C(=O)NCCC(N)=O)C3)[C@H](C)[C@H]12`, the MIC in [1] was found to be 0.025 µg/mL (≈ 0.0586 µM); in [2], 0.195 µg/mL (≈ 0.457 µM); in series [3], 0.195 µg/mL (≈ 0.457 µM); in [4], 0.007 µg/mL (≈ 0.0164 µM); in series [5] it was 0.049 µg/mL (≈ 0.115 µM); in series [6], 12.5 µg/mL (≈ 29.3 µM). The MIC was found to be 0.049 µg/mL (≈ 0.115 µM) in series [7], 0.391 µg/mL (≈ 0.917 µM) in [8] and 0.025 µg/mL (≈ 0.0586 µM) in series [9]. For the same compound, in [10], the Stability is 2600%.
For orientation: Tmax means the time from dosing to the highest level. In the case of `C[C@@H](O)[C@H]1C(=O)N2C(C(=O)O)=C(S[C@@H]3CN[C@H](C(=O)NCCS(N)(=O)=O)C3)[C@H](C)[C@H]12`, the values for the ED50 in [11], in series [13] and in [14] were 2.31 mg/kg, 0.47 mg/kg and 2.6 mg/kg, respectively. The MIC is 0.025 µg/mL (≈ 0.054 µM) in series [1]; 0.195 µg/mL (≈ 0.422 µM) in [2]; 0.098 µg/mL (≈ 0.212 µM) in series [3]; 0.004 µg/mL (≈ 0.00865 µM) in series [4]; 0.049 µg/mL (≈ 0.106 µM) in series [5]; 6.25 µg/mL (≈ 13.5 µM) in [6]. In addition, the MIC is 0.025 µg/mL (≈ 0.054 µM) in [7], 0.195 µg/mL (≈ 0.422 µM) in series [8] and 0.013 µg/mL (≈ 0.0281 µM) in series [9]. Also, the Stability in series [10] is 2400%. Moreover, the Tmax in series [12] was under 19.8 min.
